{"source": "patent US20070259056A1", "about": "“Anti-Tumour Terpene Compounds” (COMPTON DEVELOPMENTS LTD., priority 2003, published 2007)", "key": {"[1]": {"test_system": "mixed cultures containing fibroblast cells and tumour cells", "assay": "Mixed tissue culture of fibroblast cells and tumour cells", "type": "cell-based", "details": "12 hrs", "experimental": "In addition when mixed cultures containing fibroblast cells and tumour cells are treated, the normal fibroblasts appear to survive while the tumour cells go into apoptosis.\nThe results of such an experiment are shown in FIG. 14, wherein a mixed tissue culture has been treated for 12 hrs with 5 uM Bisabolene. […] In FIG. 15 a mixed tissue culture has been treated for 12 hrs with 100 uM Ocimene."}, "mammals": {"test_system": "mammals", "details": "cited from earlier work"}, "[2]": {"test_system": "S180 murine sarcoma cells", "assay": "MTT assay, cytotoxicity on S180 cells", "details": "S180 and human tumour cells in culture", "experimental": "Two transformed cell lines were chosen for MTT analysis, S180 murine sarcoma cells and HT1080 human fibrosarcoma cells. Cells were seeded in 96-well microliter plates at a density of 2×10^5 cells/ml and incubated at 37° C. and 5% CO2 for 24 hours prior to treatment. 200 ul PBS was added to the wells on the outer edges of the plate to reduce evaporation loss from the wells containing cells.\nSerial dilutions were carried out to enable a range of progressively more dilute concentrations of extract to be tested. The same procedure was followed to make solutions of staurosporine and ethanol of the same concentrations. Staurosporine, an agent with well-established cytotoxic properties, was incorporated into the study to provide a benchmark to compare the cytotoxicity of the extracts against.\nCareful mixing with a pipette ensured thorough dissolution. […] This was done immediately after addition of DMSO.\nThe method was also employed to test the impact of identified components of the Haddi extracts. Thus, trans-β-Ocimene and γ-Bisabolene both major components of the Haddi extract were tested using the MTT assay to estimate their impact on tumour cell cytotoxicity and viability, see FIGS. 7 to 10."}, "[3]": {"test_system": "A375 cells (a human skin melanoma cell line)", "assay": "MTT assay, cytotoxicity on A375 cells", "type": "cell-based", "details": "for % Cytoxicity: A375 cells; for concentration inducing / required to initiate cell death: A375 tumour cells"}, "[4]": {"test_system": "MM6 cells (monocyte leukaemic cell line)", "details": "for % Cytoxicity: MM6 cells; for concentration as low as which high cell death is induced: MM6 tumour cells", "from_the_text": "The MTT assay is a powerful, quantitative and highly reliable colourimetric assay that measures the viability of a cell population. […] The amount of formazan produced is directly proportional to the number of viable cells in the test population. The formazan product formed can be dissolved in dimethyl sulfoxide (DMSO), which enables quantification of the product to be obtained via spectrophotometry. A population containing largely viable cells will produce high levels of the formazan product and will therefore give a deep purple solution upon dissolution with DMSO, while a cell population that has mostly dead cells will produce a colourless solution. The amount of light absorbed (at a wavelength of 575 nm) can be converted to % cytotoxicity by using the following calculation: [control absorption−test absorption]X 100=% cytotoxicity control absorption Experimental Protocol\n100 ul of each concentration of each extract/control were added to 3 separate wells in a labeled microtitre plate. In the untreated control wells 100 ul of medium was added—all wells having a total final volume of 200 ul. 3 identical replicates of this were carried out for testing after 24, 48 and 72 hours. All plates were incubated at 37° C. and 5% CO2 until reading.\nAfter the required length of time (i.e. 24, 48 or 72 hours) 20 ul MTT solution (5 mg/ml) was added to each well (excluding wells containing only PBS). Plates were then returned to the incubator (under the same conditions) for a further 4 hours. MTT is photosensitive so all plates were covered in foil to minimise exposure to light. After 4 hours all medium from the wells was pipetted out (care was taken to avoid disturbing the formazan crystals) and 200 ul DMSO was added to each well. Careful mixing with a pipette ensured thorough dissolution. All plates were then read on a spectrophotometer for absorption of light at 575 nm. This was done immediately after addition of DMSO."}, "[5]": {"test_system": "HT1080 human fibrosarcoma cells", "assay": "Annexin V bioassay of apoptosis in HT1080 cells", "type": "cell-based", "details": "5 uM, 12 hours", "text": "The Annexin V bioassay is used to distinguish between cells dying via the apoptotic route and cells dying by necrosis. Knowing how ocimene and bisabolene cause cell death is crucial. […] This is because necrotic cells burst and release their content into the surroundings, thus causing an inflammatory response that is potentially harmful to neighbouring, non-target cells.\nThe Annexin V bioassay utilises an early change in the plasma membrane of apoptotic cells during which phosphatidylserine (PS), a membrane bound phospholipid, is translocated from the inner surface of the membrane bi-layer to the outer surface—thus bringing the PS into contact with the environment. This change occurs before membrane bleeding and far earlier than DNA fragmentation thus making it an ideal marker for early apoptotic cells. Annexin V is a Ca^2+-dependent phospholipid binding protein with a high affinity for PS. In this study the Annexin V was coupled to a fluorescent marker called FITC, to generate an Annexin V-FITC conjugate. FITC fluoresces with an intense green/yellow colour when viewed via fluorescent microscopy. Thus, early apoptotic cells will bind Annexin V-FITC on their plasma membranes and fluoresce- green/yellow, whereas late apoptotic cells will fluoresce green/yellow in the cytoplasm as well as at the membrane.\nTo identify necrotic cells another dying agent, propidium iodide (PI) is used. […]"}}, "note": "Like-named read-outs stand apart in the source and are kept apart here.", "data": [{"smiles": "C=C/C(C)=C/CC=C(C)C", "note": "[trans-β-Ocimene, trans-β-ocimene]", "values": [{"measurement": "survival of fibrocytes versus tumour cells in mixed culture", "setting": "[1]; 100 uM", "result": "fibrocytes spread out and survive whilst tumour cells round off to form apoptotic bodies"}, {"measurement": "toxicity to mammals", "setting": "mammals", "result": "non toxic to mammals"}, {"measurement": "tumour cell death", "setting": "[2]; concentrations above 200 mM", "result": "~100", "unit": "%"}, {"measurement": "% Cytoxicity", "setting": "[3]; 46 μM, 24 hours", "result": 7, "unit": "%"}, {"measurement": "% Cytoxicity", "setting": "[3]; 46 μM, 48 hours", "result": "−2", "unit": "%"}, {"measurement": "% Cytoxicity", "setting": "[3]; 46 μM, 72 hours", "result": "−33", "unit": "%"}, {"measurement": "% Cytoxicity", "setting": "[3]; 92 μM, 24 hours", "result": "−11", "unit": "%"}, {"measurement": "% Cytoxicity", "setting": "[3]; 92 μM, 48 hours", "result": "−25", "unit": "%"}, {"measurement": "% Cytoxicity", "setting": "[3]; 92 μM, 72 hours", "result": "−31", "unit": "%"}, {"measurement": "% Cytoxicity", "setting": "[3]; 184 μM, 24 hours", "result": 7, "unit": "%"}, {"measurement": "% Cytoxicity", "setting": "[3]; 184 μM, 48 hours", "result": 8, "unit": "%"}, {"measurement": "% Cytoxicity", "setting": "[3]; 184 μM, 72 hours", "result": "−10", "unit": "%"}, {"measurement": "% Cytoxicity", "setting": "[3]; 368 μM, 24 hours", "result": 29, "unit": "%"}, {"measurement": "% Cytoxicity", "setting": "[3]; 368 μM, 48 hours", "result": 35, "unit": "%"}, {"measurement": "% Cytoxicity", "setting": "[3]; 368 μM, 72 hours", "result": 31, "unit": "%"}]}, {"smiles": "CC(C)=CCC[C@](C)(O)C1CC=C(C)CC1", "note": "(stereo partly drawn) [α-Bisabolol, α-bisabolol]", "values": [{"measurement": "% Cytoxicity", "setting": "[4]; 0.13 μM, 24 hours", "result": 48, "unit": "%"}, {"measurement": "% Cytoxicity", "setting": "[4]; 0.13 μM, 72 hours", "result": 53, "unit": "%"}, {"measurement": "% Cytoxicity", "setting": "[4]; 0.25 μM, 24 hours", "result": 48, "unit": "%"}, {"measurement": "% Cytoxicity", "setting": "[4]; 0.25 μM, 72 hours", "result": 54, "unit": "%"}, {"measurement": "% Cytoxicity", "setting": "[4]; 2.5 μM, 24 hours", "result": 46, "unit": "%"}, {"measurement": "% Cytoxicity", "setting": "[4]; 2.5 μM, 72 hours", "result": 51, "unit": "%"}, {"measurement": "% Cytoxicity", "setting": "[4]; 10 μM, 24 hours", "result": 33, "unit": "%"}, {"measurement": "% Cytoxicity", "setting": "[4]; 10 μM, 72 hours", "result": 49, "unit": "%"}, {"measurement": "concentration as low as which high cell death is induced", "setting": "[4]", "result": 0.13, "unit": "µM"}, {"measurement": "% Cytoxicity", "setting": "[3]; 28 μM, 24 hours", "result": "−2", "unit": "%"}, {"measurement": "% Cytoxicity", "setting": "[3]; 28 μM, 72 hours", "result": 1, "unit": "%"}, {"measurement": "% Cytoxicity", "setting": "[3]; 56 μM, 24 hours", "result": "−27", "unit": "%"}, {"measurement": "% Cytoxicity", "setting": "[3]; 56 μM, 72 hours", "result": 10, "unit": "%"}, {"measurement": "% Cytoxicity", "setting": "[3]; 112 μM, 24 hours", "result": 10, "unit": "%"}, {"measurement": "% Cytoxicity", "setting": "[3]; 112 μM, 72 hours", "result": 26, "unit": "%"}, {"measurement": "% Cytoxicity", "setting": "[3]; 225 μM, 24 hours", "result": 31, "unit": "%"}, {"measurement": "% Cytoxicity", "setting": "[3]; 225 μM, 72 hours", "result": 41, "unit": "%"}, {"measurement": "concentration inducing / required to initiate cell death", "setting": "[3]", "result": 225, "unit": "µM"}]}, {"smiles": "CC(C)=CCC/C(C)=C1/CC=C(C)CC1", "note": "[γ-Bisabolene, γ-bisabolene]", "values": [{"measurement": "% Cytoxicity", "setting": "[4]; 0.13 μM, 24 hours", "result": 3, "unit": "%"}, {"measurement": "% Cytoxicity", "setting": "[4]; 0.13 μM, 48 hours", "result": "−37", "unit": "%"}, {"measurement": "% Cytoxicity", "setting": "[4]; 0.13 μM, 72 hours", "result": 13, "unit": "%"}, {"measurement": "% Cytoxicity", "setting": "[4]; 0.25 μM, 24 hours", "result": 49, "unit": "%"}, {"measurement": "% Cytoxicity", "setting": "[4]; 0.25 μM, 48 hours", "result": 68, "unit": "%"}, {"measurement": "% Cytoxicity", "setting": "[4]; 0.25 μM, 72 hours", "result": 80, "unit": "%"}, {"measurement": "% Cytoxicity", "setting": "[4]; 2.5 μM, 24 hours", "result": 51, "unit": "%"}, {"measurement": "% Cytoxicity", "setting": "[4]; 2.5 μM, 48 hours", "result": 70, "unit": "%"}, {"measurement": "% Cytoxicity", "setting": "[4]; 2.5 μM, 72 hours", "result": 78, "unit": "%"}, {"measurement": "% Cytoxicity", "setting": "[4]; 10 μM, 24 hours", "result": 45, "unit": "%"}, {"measurement": "% Cytoxicity", "setting": "[4]; 10 μM, 48 hours", "result": 67, "unit": "%"}, {"measurement": "% Cytoxicity", "setting": "[4]; 10 μM, 72 hours", "result": 78, "unit": "%"}, {"measurement": "concentration as low as which high cell death is induced", "setting": "[4]", "result": 0.25, "unit": "µM"}, {"measurement": "survival of fibrocytes versus tumour cells in mixed culture", "setting": "[1]; 5 uM", "result": "fibrocytes survive whilst tumour cells round off as apoptotic bodies"}, {"measurement": "concentration at which potent", "setting": "[2]", "result": "around 50 mM"}, {"measurement": "induction of apoptotic cell death (Annexin V)", "setting": "[5]", "result": "induction of apoptotic cell death"}, {"measurement": "% Cytoxicity", "setting": "[3]; 0.13 μM, 24 hours", "result": 15, "unit": "%"}, {"measurement": "% Cytoxicity", "setting": "[3]; 0.13 μM, 48 hours", "result": 5, "unit": "%"}, {"measurement": "% Cytoxicity", "setting": "[3]; 0.13 μM, 72 hours", "result": 13, "unit": "%"}, {"measurement": "% Cytoxicity", "setting": "[3]; 0.25 μM, 24 hours", "result": 10, "unit": "%"}, {"measurement": "% Cytoxicity", "setting": "[3]; 0.25 μM, 48 hours", "result": 7, "unit": "%"}, {"measurement": "% Cytoxicity", "setting": "[3]; 0.25 μM, 72 hours", "result": 50, "unit": "%"}, {"measurement": "% Cytoxicity", "setting": "[3]; 2.5 μM, 24 hours", "result": 15, "unit": "%"}, {"measurement": "% Cytoxicity", "setting": "[3]; 2.5 μM, 48 hours", "result": 55, "unit": "%"}, {"measurement": "% Cytoxicity", "setting": "[3]; 2.5 μM, 72 hours", "result": 71, "unit": "%"}, {"measurement": "% Cytoxicity", "setting": "[3]; 10 μM, 24 hours", "result": 23, "unit": "%"}, {"measurement": "% Cytoxicity", "setting": "[3]; 10 μM, 48 hours", "result": 64, "unit": "%"}, {"measurement": "% Cytoxicity", "setting": "[3]; 10 μM, 72 hours", "result": 77, "unit": "%"}, {"measurement": "concentration inducing / required to initiate cell death", "setting": "[3]", "result": 0.25, "unit": "µM"}]}]}
